Laboratory results published in ChEMBL document CHEMBL1156251, “Structure--activity relationships of polymyxin antibiotics” (J Med Chem, 2010).
≈ marks a conversion by molar mass, not a printed value. Where “and” joins values, the source holds several entries; their conditions need not be identical. Equal values may be shown once. Where a SMILES comes first, the peptide text is derived from it. Bridges are numbered along the chain shown (N, C = ends). [ ]: non-standard residue; d: D form. The star is where a group is joined. Nonanoyl = CCCCCCCCC(=O)*; Dab = NCC[C@H](N)C(=O)O

Assays:
[1] = test system: Klebsiella pneumoniae; test: Antimicrobial activity against Klebsiella pneumoniae; assay type: functional
[2] = test system: Escherichia coli; test: Antimicrobial activity against Escherichia coli; assay type: functional
[3] = test system: Salmonella enterica; test: Antimicrobial activity against Salmonella enterica; assay type: functional
[4] = test system: Pseudomonas aeruginosa; test: Antimicrobial activity against Pseudomonas aeruginosa; assay type: functional, organism-based
[5] = target: Lipopolysaccharide (LPS); test: Displacement of dansyl-PMB from LPS by isothermal titration calorimetry

MIC [1] [µg/mL] | MIC [2] | MIC [3] [µM] | MIC [4] [µM] | IC50 [5] | SMILES
26 (≈ 14.9 µM) |  |  |  |  | CCC(C)CCCCC(=O)N[C@@H](CC/N=C/c1ccc(O)c(OC)c1)C(=O)N[C@@H](C(=O)N[C@@H](CCN)C(=O)N[C@H]1CCNC(=O)[C@@H]([C@@H](C)O)NC(=O)[C@H](CC/N=C/c2ccc(O)c(OC)c2)NC(=O)[C@H](CC/N=C/c2ccc(O)c(OC)c2)NC(=O)[C@H](CC(C)C)NC(=O)[C@@H](Cc2ccccc2)NC(=O)[C@H](CC/N=C/c2ccc(O)c(OC)c2)NC1=O)[C@@H](C)O (stereo partly drawn)
26 (≈ 16.1 µM) |  |  |  |  | CCC(C)CCCCC(=O)N[C@@H](CC/N=C/c1ccc(O)cc1)C(=O)N[C@H](C(=O)N[C@@H](CCN)C(=O)N[C@H]1CCNC(=O)[C@H]([C@@H](C)O)NC(=O)[C@H](CC/N=C/c2ccc(O)cc2)NC(=O)[C@H](CC/N=C/c2ccc(O)cc2)NC(=O)[C@H](CC(C)C)NC(=O)[C@@H](Cc2ccccc2)NC(=O)[C@H](CC/N=C/c2ccc(O)cc2)NC1=O)[C@@H](C)O (stereo partly drawn)
26 (≈ 16.7 µM) |  |  |  |  | CCC(C)CCCCC(=O)N[C@@H](CC/N=C/c1ccccc1)C(=O)N[C@H](C(=O)N[C@@H](CCN)C(=O)N[C@H]1CCNC(=O)[C@H]([C@@H](C)O)NC(=O)[C@H](CC/N=C/c2ccccc2)NC(=O)[C@H](CC/N=C/c2ccccc2)NC(=O)[C@H](CC(C)C)NC(=O)[C@@H](Cc2ccccc2)NC(=O)[C@H](CC/N=C/c2ccccc2)NC1=O)[C@@H](C)O (stereo partly drawn)
1.3 (≈ 0.85 µM) | 5 µg/mL |  |  |  | CCC(C)CCCCC(=O)N[C@@H](CCNCc1ccccc1)C(=O)N[C@H](C(=O)N[C@@H](CCN)C(=O)N[C@H]1CCNC(=O)[C@H]([C@@H](C)O)NC(=O)[C@H](CCNCc2ccccc2)NC(=O)[C@H](CCNCc2ccccc2)NC(=O)[C@H](CC(C)C)NC(=O)[C@@H](CC(C)C)NC(=O)[C@H](CCNCc2ccccc2)NC1=O)[C@@H](C)O (stereo partly drawn)
26 (≈ 17.1 µM) | 0.08 µg/mL |  |  |  | CCC(C)CCCCC(=O)N[C@@H](CC/N=C/c1ccccc1)C(=O)N[C@H](C(=O)N[C@@H](CCN)C(=O)N[C@H]1CCNC(=O)[C@H]([C@@H](C)O)NC(=O)[C@H](CC/N=C/c2ccccc2)NC(=O)[C@H](CC/N=C/c2ccccc2)NC(=O)[C@H](CC(C)C)NC(=O)[C@@H](CC(C)C)NC(=O)[C@H](CC/N=C/c2ccccc2)NC1=O)[C@@H](C)O (stereo partly drawn)
 | 1 µM | 1 (≈ 1.2 µg/mL) | 1 (≈ 1.2 µg/mL) | 6 µM | CCCCCCCCC(=O)N[C@@H](CCN)C(=O)N[C@H](C(=O)N[C@@H](CCN)C(=O)N[C@H]1CCNC(=O)[C@H]([C@@H](C)O)NC(=O)[C@H](CCN)NC(=O)[C@H](CCN)NC(=O)[C@H](CC(C)C)NC(=O)[C@@H](Cc2ccccc2)NC(=O)[C@H](CCN)NC1=O)[C@@H](C)O [POLYMYXIN B5] (Nonanoyl-[Dab]T[Dab][Dab][Dab][dF]L[Dab][Dab]T; lactam 4-C)
 | 0.5 µM | 0.5 (≈ 0.61 µg/mL) | 0.5 (≈ 0.61 µg/mL) | 7 µM | CCC(C)CCC(O)CC(=O)N[C@@H](CCN)C(=O)N[C@H](C(=O)N[C@@H](CCN)C(=O)N[C@H]1CCNC(=O)[C@H]([C@@H](C)O)NC(=O)[C@H](CCN)NC(=O)[C@H](CCN)NC(=O)[C@H](CC(C)C)NC(=O)[C@@H](Cc2ccccc2)NC(=O)[C@H](CCN)NC1=O)[C@@H](C)O (stereo partly drawn) [POLYMYXIN B6]
 | ≥ 256 µM and ≥ 300 µg/mL | ≥ 256 | 128 (≈ 97.5 µg/mL) | >= 32 nmol/ml | CC(C)C[C@@H]1NC(=O)[C@@H](Cc2ccccc2)NC(=O)[C@H](CCN)NC(=O)[C@@H](N)CCNC(=O)[C@H]([C@@H](C)O)NC(=O)[C@H](CCN)NC(=O)[C@H](CCN)NC1=O [POLYMYXIN B HEPTAPEPTIDE]
 | ≥ 128 µM and ≥ 300 µg/mL | 256 (≈ 221 µg/mL) | 64 (≈ 55.2 µg/mL) | 21 µM | CC(C)C[C@@H]1NC(=O)[C@@H](Cc2ccccc2)NC(=O)[C@H](CCN)NC(=O)[C@@H](NC(=O)[C@@H](N)CCN)CCNC(=O)[C@H]([C@@H](C)O)NC(=O)[C@H](CCN)NC(=O)[C@H](CCN)NC1=O [POLYMYXIN B OCTAPEPTIDE] (H-[Dab][Dab][Dab][dF]L[Dab][Dab]T; lactam 2-C)
